Where two headings read alike, the source gives them in different places.
Key:
TICA0010 Fab = assay: HTRF competition binding selectivity assay, TICA0010 His-Fab; parameters: species or system human; details: first series (Table 2), not DMSO normalised; read-out: IC50 (uM) for inhibition of biotinylated ticagrelor binding to TICA00l0 his-Fab
Method: (§1) Total Binding control wells were set up which contained all of the assay components above except that 5 ul assay buffer was added in place of the test selectivity compound addition. Negative Binding control wells were set up which contained all of the assay components included in the Total Binding control wells except that 5ul assay buffer was added in place of the His-Fab addition. Test compound serial titrations were either ½ or ⅓ depending on the particular experiment and top final assay compound concentrations were optimized on a compound specific basis. The concentration of biotinylated ticagrelor and His-Fab was optimized on a Fab specific basis in separate experiments. For the four Fabs investigated at the end of the lead isolation phase (TICA0010, TICA0049, TICA0053 and TICA0072) the final assay reagent concentrations used are set out in Table 1 below:
(§2) For the two Fabs investigated at the end of the lead optimization phase (TICA0162 and TICA0212) the final assay reagent concentrations used were 5nM biotinylated ticagrelor and 1 nM His Fab in both cases. […] In order to enable subsequent normalization of data to correct for any such vehicle related effects parallel titrations of DMSO alone were included in most experiments in which the final assay DMSO concentrations mirrored those of the test compound serial dilutions. At the end of the set up procedure that assay was incubated for 3hrs at RT before being read on an Envision plate reader using a standard read protocol.
(§3) The negative ratio value used in the calculation of % Delta F was derived from the Negative Binding control wells. % Delta F values were then used to calculate % Specific Binding values according to the equation below: Specific Binding (%)={(Sample Delta F−Negative Binding Delta F)/(Total Binding Delta F−Negative Binding Delta F)}×100
(§4) For standard calculations of % Specific Binding Total Binding Delta F was taken from Total Binding control wells which contained all of the aforementioned components of the assay but without inclusion of any competing test compound.
(§5) In those experiments where DMSO normalization was applied DMSO normalised % Specific Binding was calculated essentially according to the equation above except that in this case Total Binding Delta F was taken from wells containing all of the components in the Total Binding control wells as well as DMSO at a concentration equivalent to that in the relevant sample well.

TICA0049 Fab = assay: HTRF competition binding selectivity assay, TICA0049 His-Fab; parameters: species or system human
Method: as §1, §2, §3, §4, §5
In a second series of experiments further selectivity data was generated for TICA0049 and TICA0072 Fabs in which a subset of four of the twelve compounds listed in FIG. 4 were retested along with ticagrelor, TAM and TIM and several adenosine related compounds. Here, in a refinement to the earlier investigations in Table 2, experiments were designed in order to enable normalisation of percent specific binding values to correct for any non-specific vehicle related effects due to DMSO. Example plotted data from this second series of experiments is shown in FIG. 5A-F along with tabulated IC50 values in Table 3.

TICA0162 Fab = assay: HTRF competition binding selectivity assay, TICA0162 His-Fab; parameters: species or system human; details: Table 7, DMSO normalised; 5 nM biotinylated ticagrelor, 1 nM His Fab; read-out: IC50 (uM) for inhibition of biotinylated ticagrelor binding to TICA0162 Fab
Method: as §1
as §2, with “protocol. […]” for “protocol.”
as §5

[1] = parameters: species or system mice; details: mouse, in vivo
Method: The method was optimized based on a previous published method [Sillen H., et al., J Chromatogr B Analyt Technol Biomed Life Sci. 2011 Aug. 1; 879(23): 2315-22]. Dialysis membranes (Spectrum Laboratories, Inc) which allows molecules with a mass below 6 to 8 kDa to pass through, was soaked in ELGA water for 10 to 15 min and placed between the dialysis plate halves (in house made). Plasma, 130 μL, was added to one side of the dialysis plate and 130 μL phosphate buffer, pH 7.0, was added to the opposite side. The wells on both sides were sealed with lids and aluminum plates were put on top on each side of the plate to avoid leakage. The plate was then placed vertical on an orbital shaker at 100 rpm/min at 37° C. for 24 h. The dialysis was terminated by transferring of 50 μL retentate from plasma side and 75 μL dialysate from buffer side to a protein LoBind PCR clean 96 deep-well plate containing 150 μL respective 75 μL internal standard (D7-ZD6140) in acetonitrile. The plate was mixed for 1 min and then centrifuged for 20 min, 1500× g at 4° C. After centrifugation 50 μL supernatant from the precipitated retentate was transferred and diluted with 50 μL ELGA H2O before LC-MS/MS (Acquity Ultra Performance LC coupled to a Xevo TQ-S mass spectrometer, Waters) analysis. No quality control samples were used in the analysis. […]

[2] = target: TICA0159 IgG binding to biotinylated ticagrelor; assay: Second generation HTRF epitope competition assay
Method: Purified parent TICA0072 (scFv or Fab) was used as a benchmark in all experiments such that improvements in IC50 measured with optimized variants (scFv or Fab) could be expressed as fold improvements over parent TICA0072. Total Binding Control Wells contained all assay components except that 5 ul assay buffer was added in place of the purified scFv or Fab sample. Negative Binding control wells contained all of the components of the Total Binding control wells except that 5 ul of assay buffer was added in place of the TICA0072 IgG.
In both single point HTS and multipoint IC50 profiling versions of the assay. plates were incubated for 3 hrs at RT before being read on an Envision plate reader using a standard HTRF read protocol in which samples are excited at 337 nm and time resolved fluorescence emission is measured at both 620 nm and 665 nM.
Raw 665 nm and 620 nm counts were used to calculate Delta F (%) and % Specific Binding according to the equations described earlier in Assays 1 and 4, respectively. For multipoint secondary profiling experiments IC50 values were determined using Graphpad Prism software using sigmoidal dose response (variable slope) curve fitting (4 parameter logistic equation).
This assay was used only in multipoint IC50 profiling format (as opposed to HTS format) and was performed essentially identically to the method given in Assay 5 (above) for multipoint IC50 profiling of purified Fab variants in the parent TICA0072 IgG based epitope competition assay. The only difference being that TICA0159 IgG was used in place of TICA0072 IgG at the appropriate point in the assay set up but at the same 16nM final assay concentration. In all other respects this assay was performed exactly as described above in the multipoint secondary profiling version for purified Fab.

IC50 (TICA0010 Fab) [µM] | IC50 (TICA0049 Fab; first series (Table 2), not DMSO normalised, read-out: IC50 (uM) for inhibition of biotinylated ticagrelor binding to TICA0049 his-Fab) [µM] | IC50 (TICA0049 Fab; second series (Table 3), DMSO normalised, read-out: IC50 in competition binding selectivity studies, TICA0049) [µM] | IC50 (TICA0162 Fab) [µM] | mean free plasma concentration of ticagrelor [1] [nM] | Molecule | IC50 ([2]; Fab, 16 nM TICA0159 IgG, 1 nM biotinylated ticagrelor) [nM] | Fold Improved ([2]; IC50 relative to parent TICA0072 Fab) | improvement in IC50 relative to the parent TICA0072 Fab ([2]; second generation epitope competition assay)
0.122 | 0.257 | 0.368 | 0.023 | 4.7 | CCCSc1nc(N[C@@H]2C[C@H]2c2ccc(F)c(F)c2)c2nnn([C@@H]3C[C@H](OCCO)[C@@H](O)[C@H]3O)c2n1 [Ticagrelor, (1S,2S,3R,5S)-3-[7-{[(1R,2S)-2-(3,4-difluorophenyl)cyclopropyl]amino}-5-(propylthio)-3H-[1,2,3]triazolo[4,5-d]pyrimidin-3-yl]-5-(2-hydroxyethoxy)cyclopentane-1,2-diol] |  |  | 
 |  |  |  |  | TICA0212: combination of TICA0162 and TICA0152; VH SEQ ID NO:72, VL SEQ ID NO:77 (antibody, listed as Homo sapiens, V domains shown) VH: QVQLQESGAEVKKPGSSVRVSCKASGGTFDSYSIHWVRQAPGQGLEWMGGIIPAFGTLSSAQDFQARVTISADKSTSTAYMELSGLRSEDTAVYYCARGSFDYYFWSASHPPNDALAIWGQGTLVTVSS VL: QSVVTQPPSVSAAPGQKVTISCSGSNSDIGNNYVSWYQQLPGTAPKLLIYDNNKRPSGIPDRFSGSKSGTSATLAITGLQAGDEADYYCGTWLYDRAVGLFGGGTKVTVL | 12 | 142.8 | approximately 2 log

Reference: patent publication US12391768B2, “Antibodies to ticagrelor and methods of use” (MEDIMMUNE LIMITED, priority 2014, dated 2025)
